In patent US8835426B2, “Cyclic urea and carbamate inhibitors of 11β-hydroxysteroid dehydrogenase 1” (Vitae Pharmaceuticals, Inc., priority 2007, dated 2014):

How the values were obtained:
microsomal 11β-HSD1 = microsomal 11β-HSD1 (Homo sapiens, UniProt P28845); assay: Inhibition of microsomal 11β-HSD1, Scintillation Proximity Assay; assay type: biochemical; conditions: microsomal enzyme, same manner as purified enzyme assay
Procedure: (§1) The inhibition of purified 11β-HSD1 by compounds of Formula I was measured as follows using a Scintillation Proximity Assay. All reactions were carried out at room temperature in 96 well flexible Microbeta reaction plates. The assay begins by adding 1 microliter of a 0.1 mM solution of a compound of Formula I in DMSO previously diluted in half-log increments (8 points) starting at 1 micromolar final concentration. To this dot was added 50 microliters of substrate solution (50 mM HEPES, pH 7.4, 100 mM KCl, 5 mM NaCl, 2 mM MgCl2 containing […] of ^3H cortisone, 1 mM NADPH). After a 10 minute incubation, 50 microliters of enzyme solution containing 20 nM recombinant 11β-HSD1 (expressed in E. coli, and affinity purified) was added, The reaction was incubated for 90 minutes, and stopped by adding 50 microliters of SPA bead mix (18-β-glycyrrhetinic acid, 10 micromolar final, 5 mg/ml protein A coated YSi SPA beads, and 1-microgram/ml alpha-cortisol antibody (East Coast Biologics). The plate shaken for 120 minutes, and the radioactivity corresponding to ^3H cortisol was measured on a Wallac Microbeta.
The inhibition of microsomal 11β-HSD1 was carried out in the same manner.

[1] = target: T1, purified 11β-HSD1 (recombinant, expressed in E. coli) (Homo sapiens, UniProt P28845); assay: Inhibition of purified 11β-HSD1, Scintillation Proximity Assay; assay type: biochemical; conditions: recombinant enzyme, 3H cortisone, NADPH, room temperature
T1 construct: made in house; host or cells: E. coli
T1 sequence (P28845 whole entry): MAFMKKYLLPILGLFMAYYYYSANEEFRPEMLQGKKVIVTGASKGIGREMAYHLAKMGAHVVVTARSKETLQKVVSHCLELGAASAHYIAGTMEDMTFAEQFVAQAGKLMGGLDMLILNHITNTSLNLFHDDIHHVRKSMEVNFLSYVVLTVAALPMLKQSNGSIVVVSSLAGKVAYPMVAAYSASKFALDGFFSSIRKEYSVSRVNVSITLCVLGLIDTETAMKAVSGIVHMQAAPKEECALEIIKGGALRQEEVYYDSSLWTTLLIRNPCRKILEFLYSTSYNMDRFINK
Procedure: as §1

[2] = target: T2, 11β-HSD1 in whole cells (omental adipocytes) (Homo sapiens, UniProt P28845); assay: Inhibition of 11β-HSD1 in whole cells (omental adipocytes), cortisone to cortisol conversion, SPA; assay type: cell-based; conditions: 100 nM [3H] cortisone, 37 degrees C
T2 construct: host or cells: omental adipocytes differentiated from preadipocytes
T2 sequence (P28845 whole entry): as above
Procedure: The inhibition of 11β-HSD1 by compounds of Formula I in whole cells was measured as follows. Omental adipocytes cultured in 96-well plates were purchased from Zen-Bio, Inc. and used at least two weeks after differentiation from precursor preadipocytes started in medium supplemented with adipogenic and lipogenic hormones (human insulin, dexamethasone, isobutylmethylxanthine and PPAR-gamma agonist). The cells were maintained in full adipocyte medium (DMEM/Ham's F-12 (1:1, v/v), HEPES pH 7.4, fetal bovine serum, penicillin, streptomycin and Amphotericin B, supplied by Zen-Bio, Inc.) at 37 degrees C., 5% CO2 and transferred into serum-free, phenol red free medium for overnight incubation. The assay was performed in a total volume of 200 microliters. The cells were pre-incubated with serum-free, phenol red free medium containing 0.1% (v/v) of DMSO and various concentrations of compounds of Formula I at least 1 h before [^3H] cortisone in ethanol (50 Ci/mmol, ARC, Inc.) was added to achieve final concentration of cortisone of 100 nM. The cells were incubated for 3-4 at 37 degrees Centigrade, 5% CO2. Negative controls were incubated without radioactive substrate and received the same amount of [^3H] cortisone at the end of the incubation. Formation of [^3H] cortisol was monitored by analyzing 25 microliters of each supernatant in scintillation proximity assay (SPA). (Solly, K.; Mundt, S. S.; Zokian, H. J.; Ding, G. J.; Hermanowski-Vosatka, A.; Strulovici, B.; Zheng, W. Assay Drug Dev. Technol. 2005, 3, 377-384),

Sequence of microsomal 11β-HSD1 (P28845 whole entry): as above

Work on CC(C)CC1(CO)CN(C2C3CC4CC(C3)CC2C4)C(=O)N1 (racemic) [Example 35, (±)-1-(2-adamantyl)-4-(hydroxymethyl)-4-isobutylimidazolidin-2-one] yielded an IC50 (microsomal 11β-HSD1) of less than 50 nM.

O=C1O[C@@H](c2ccccc2)CN1CC12CC3CC(CC(C3)C1)C2 [Example 1, (S)-3-((1-adamantyl)methyl)-5-phenyloxazolidin-2-one] gave an IC50 [1] of less than 50 nM and an IC50 [2] of 50 to 1000 nM.

In the case of O=C1OC(c2ccc(-c3ccccc3)cc2)CN1C1C2CC3CC(C2)CC1C3 (racemic) [Example 38, (±)-5-(biphenyl-4-yl)-3-(2-adamantyl)oxazolidin-2-one], the IC50 (microsomal 11β-HSD1) is reported as less than 50 nM.

O=C1O[C@@H](c2ccccc2Cl)CN1CC12CC3CC(CC(C3)C1)C2 [Example 7, (S)-3-((1-adamantyl)methyl)-5-(2-chlorophenyl)oxazolidin-2-one] gave an IC50 [1] of less than 50 nM and an IC50 [2] of 50 to 1000 nM.

In the case of O=C1O[C@@H](c2ccccc2)CN1C1C2CC3CC(C2)CC1C3 (stereo partly drawn) [Example 14, (S)-3-(2-adamantyl)-5-phenyloxazolidin-2-one], the IC50 [1] is reported as 50 to 1000 nM.

For O=C1OC(c2ccc(Br)cc2)CN1C1C2CC3CC(C2)CC1C3 (racemic) [Example 29, (±)-5-(4-bromophenyl)-3-(2-adamantyl)oxazolidin-2-one], the IC50 (microsomal 11β-HSD1) was less than 50 nM.

In the case of CC(C)C[C@H]1CN(C2C3CC4CC(C3)CC2C4)C(=O)O1 (stereo partly drawn) [Example 5, (S)-3-(2-adamantyl)-5-isobutyloxazolidin-2-one], the IC50 [1] is reported as less than 50 nM and the IC50 [2] is reported as less than 50 nM.

With O=C1O[C@H](c2ccccc2)CN1CC12CC3CC(CC(C3)C1)C2 [Example 3, (R)-3((1-adamantyl)methyl)-5-phenyloxazolidin-2-one] the IC50 [1] was 50 to 1000 nM.

For CC(C)C[C@H]1CN(C2C3CC4CC2CC(O)(C4)C3)C(=O)O1 (single isomer, unassigned) [Example 13A], the IC50 [1] was 50 to 1000 nM.

Work on CC(C)(C)[C@H]1CN(C2C3CC4CC(C3)CC2C4)C(=O)O1 (stereo partly drawn) [Example 12, (S)-3-(2-adamantyl)-5-tert-butyloxazolidin-2-one] yielded an IC50 [1] of less than 50 nM, an IC50 [2] of less than 50 nM and an IC50 (microsomal 11β-HSD1) of less than 50 nM.

Compound O=C1N[C@H](CO)CN1CC12CC3CC(CC(C3)C1)C2 [Example 24, (S)-1-((1-adamantyl)methyl)-4-(hydroxymethyl)imidazolidin-2-one] has an IC50 [1] of 50 to 1000 nM.

CC(C)C[C@H]1CN(CC23CC4CC(CC(C4)C2)C3)C(=O)O1 [Example 2, (S)-3-((1-adamantyl)methyl)-5-isobutyloxazolidin-2-one] was tested, and the IC50 [1] was less than 50 nM and the IC50 [2] was 50 to 1000 nM.

With O=C1OC(C2CCC(O)CC2)CN1CC12CC3CC(CC(C3)C1)C2 (single isomer, unassigned) [Example 22B, 3-(1-adamantylmethyl)-5-(4-hydroxycyclohexyl)oxazolidin-2-one] the IC50 [1] was 50 to 1000 nM.

C[C@]1(c2ccccc2)CN(C2C3CC4CC(C3)CC2C4)C(=O)O1 (stereo partly drawn) [Example 16, (S)-3-(2-adamantyl)-5-methyl-5-phenyloxazolidin-2-one] gave an IC50 [1] of less than 50 nM and an IC50 [2] of less than 50 nM.

CC(C)C[C@H]1CN(C2C3CC4CC2CC(O)(C4)C3)C(=O)O1 (single isomer, unassigned) [Example 13B] was tested, and the IC50 [1] was greater than 1000 nM.

For O=C1N[C@@H](c2ccccc2)CN1C12CC3CC(CC(C3)C1)C2 [Example 30, (S)-1-(1-adamantyl)-4-phenylimidazolidin-2-one], the IC50 [2] was 50 to 1000 nM and the IC50 (microsomal 11β-HSD1) was less than 50 nM.

In the case of CC(C)(C)C1CCN(C2C3CC4CC(C3)CC2C4)C(=O)N1 (racemic) [Example 31, (±)-4-tert-butyl-1-(2-adamantyl)tetrahydropyrimidin-2(1H)-one], the IC50 [2] is reported as less than 50 nM and the IC50 (microsomal 11β-HSD1) is reported as less than 50 nM.

For CC(C)CC1CCN(CC23CC4CC(CC(C4)C2)C3)C(=O)O1 (stereo not drawn) [Example 23, 3((1-adamantyl)methyl)-6-isobutyl-1,3-oxazinan-2-one], the IC50 [1] was 50 to 1000 nM.

CC[C@H]1CN(CC23CC4CC(CC(C4)C2)C3)C(=O)O1 [Example 10, (S)-3-((1-adamantyl)methyl)-5-ethyloxazolidin-2-one] was tested, and the IC50 [1] was 50 to 1000 nM.

Work on O=C1OC(c2cccc(Cl)c2)CN1CC12CC3CC(CC(C3)C1)C2 (racemic) [Example 9, (±)-3((1-adamantyl)methyl)-5-(3-chlorophenyl)oxazolidin-2-one] yielded an IC50 [1] of 50 to 1000 nM.

With CC(C)(C)[C@H]1CN(C2C3CC4CC(C3)CC2C4)C(=O)N1 (stereo partly drawn) [Example 27, (S)-1-(2-adamantyl)-4-tert-butylimidazolidin-2-one] the IC50 [1] was less than 50 nM and the IC50 [2] was less than 50 nM.

O=C1O[C@@H](C2CCCCC2)CN1C1C2CC3CC(C2)CC1C3 (stereo partly drawn) [Example 20, (S)-3-(2-adamantyl)-5-cyclohexyloxazolidin-2-one] gave an IC50 [1] of less than 50 nM and an IC50 [2] of less than 50 nM.

Work on CC(C)C[C@H]1CN(C23CC4CC(CC(C4)C2)C3)C(=O)O1 [Example 4, (S)-3-(1-adamantyl)-5-isobutyloxazolidin-2-one] yielded an IC50 [1] of less than 50 nM and an IC50 [2] of less than 50 nM.

C[C@@H]1[C@H](c2ccccc2)OC(=O)N1CC12CC3CC(CC(C3)C1)C2 [Example 25, (4R,5S)-3-((1-adamantyl)methyl)-4-methyl-5-phenyloxazolidin-2-one] gave an IC50 [1] of less than 50 nM and an IC50 [2] of less than 50 nM.

With O=C1O[C@H](C2CCCCC2)CN1C1C2CC3CC(C2)CC1C3 (stereo partly drawn) [Example 21, (R)-3-(2-adamantyl)-5-cyclohexyloxazolidin-2-one] the IC50 [1] was less than 50 nM and the IC50 [2] was less than 50 nM.

Compound O=C1O[C@@H](Cc2ccccc2)CN1CC12CC3CC(CC(C3)C1)C2 [Example 6, (S)-5-benzyl-3-((1-adamantyl)methyl)oxazolidin-2-one] has an IC50 [1] of 50 to 1000 nM.

O=C1O[C@@H](C2CCCCC2)CN1CC1C2CC3CC(C2)CC1C3 (stereo partly drawn) [Example 19, (S)-3-((2-adamantyl)methyl)-5-cyclohexyloxazolidin-2-one] was tested, and the IC50 [1] was 50 to 1000 nM.

In the case of CC(C)CC1(CO)CN(CC23CC4CC(CC(C4)C2)C3)C(=O)N1 (racemic) [Example 36, (±)-1-(1-adamantylmethyl)-4-(hydroxymethyl)-4-isobutylimidazolidin-2-one], the IC50 (microsomal 11β-HSD1) is reported as 50 to 1000 nM.

O=C1N[C@@H](C2CCCCC2)CN1C1C2CC3CC(C2)CC1C3 (stereo partly drawn) [Example 32, (S)-4-cyclohexyl-1-(2-adamantyl)imidazolidin-2-one] was tested, and the IC50 [2] was less than 50 nM and the IC50 (microsomal 11β-HSD1) was less than 50 nM.

O=C1OC(c2cccc(-c3ccccc3)c2)CN1C1C2CC3CC(C2)CC1C3 (racemic) [Example 37, (±)-5-(biphenyl-3-yl)-3-(2-adamantyl)oxazolidin-2-one] gave an IC50 [2] of 50 to 1000 nM and an IC50 (microsomal 11β-HSD1) of less than 50 nM.

In the case of CC1CCN(CC23CC4CC(CC(C4)C2)C3)C(=O)O1 (stereo not drawn) [Example 26, 3-((1-adamantyl)methyl)-6-methyl-1,3-oxazinan-2-one], the IC50 [1] is reported as 50 to 1000 nM.

Compound CC(C)(C)[C@H]1CN(CC23CC4CC(CC(C4)C2)C3)C(=O)O1 [Example 8, (S)-3-((1-adamantyl)methyl)-5-(t-butyl)oxazolidin-2-one] has an IC50 [1] of less than 50 nM and an IC50 [2] of less than 50 nM.

For O=C1O[C@@H](c2ccccc2)CN1CC1C2CC3CC(C2)CC1C3 (stereo partly drawn) [Example 11, (S)-3((2-adamantyl)methyl)-5-phenyloxazolidin-2-one], the IC50 [1] was 50 to 1000 nM.

In the case of O=C1OC(c2ccc(O)cc2)CN1CC12CC3CC(CC(C3)C1)C2 (stereo not drawn) [Example 17, 3-(1-adamantylmethyl)-5-(4-hydroxyphenyl)oxazolidin-2-one], the IC50 [1] is reported as 50 to 1000 nM.

Work on O=C1OC(c2cccc(Br)c2)CN1C1C2CC3CC(C2)CC1C3 (racemic) [Example 34, (±)-5-(3-bromophenyl)-3-(2-adamantyl)oxazolidin-2-one] yielded an IC50 (microsomal 11β-HSD1) of less than 50 nM.

O=C1O[C@@H](C2CCCCC2)CN1CC12CC3CC(CC(C3)C1)C2 [Example 18, (S)-3-((1-adamantyl)methyl)-5-cyclohexyloxazolidin-2-one] showed an IC50 [1] of less than 50 nM and an IC50 [2] of 50 to 1000 nM.

Work on O=C1O[C@H](c2ccccc2)CN1C1C2CC3CC(C2)CC1C3 (stereo partly drawn) [Example 15, (R)-3-(2-adamantyl)-5-phenyloxazolidin-2-one] yielded an IC50 [1] of 50 to 1000 nM.

CC(C)[C@H]1CN(C2C3CC4CC(C3)CC2C4)C(=O)N1 (stereo partly drawn) [Example 33, (S)-4-isopropyl-1-(2-adamantyl)imidazolidin-2-one] was tested, and the IC50 [2] was less than 50 nM and the IC50 (microsomal 11β-HSD1) was less than 50 nM.
